Reference: patent US11939319B2, “Pyridinyl and pyrazinyl-(asa)indolsulfonamides” (UCB Pharma GmbH, priority 2018, dated 2024)

Assays:
GPR17 [1] = target: T1, GPR17 (Homo sapiens, UniProt Q13304); details: WO 2005/103291; cited from earlier work
Target sequence in this assay (Q13304 whole entry, species assumed): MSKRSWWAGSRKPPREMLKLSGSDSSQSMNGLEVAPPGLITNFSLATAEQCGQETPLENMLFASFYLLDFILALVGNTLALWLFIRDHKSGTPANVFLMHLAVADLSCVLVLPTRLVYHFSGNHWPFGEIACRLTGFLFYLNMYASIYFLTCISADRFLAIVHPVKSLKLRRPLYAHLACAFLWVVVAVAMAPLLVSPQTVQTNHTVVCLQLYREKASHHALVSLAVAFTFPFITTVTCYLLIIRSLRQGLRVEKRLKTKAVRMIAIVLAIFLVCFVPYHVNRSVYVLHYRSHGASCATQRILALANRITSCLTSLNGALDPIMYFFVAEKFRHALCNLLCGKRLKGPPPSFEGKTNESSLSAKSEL

GPR17 [2] = target: T1, GPR17; assay: Calcium mobilization functional assay (Ca2+ assay) in CHO hGPR17 cells; type: cell-based; parameters: host or cells: Flp-In T-REx CHO cells, expression induced with doxycycline; details: inhibition of 50 nM MDL29,951 (GPR17 agonist), activity range, read-out: Ca^2+ assay pIC50 (converted)
Description: (§1) Flp-In T-REx CHO cells stably expressing human GPR17 receptor (CHO hGPR17) from Evi Kostenis' lab (Bonn University, Germany) were cultured at 37° C. in a humidified atmosphere of 5% CO2. Cells were grown in DMEM with Nutrient Mixture F-12 supplemented with hygromycin B (500 μg/ml) and blasticidin (30 μg/ml). Expression from the Flp-In locus was induced by treatment with doxycycline (1 μg/ml) for 16-20 h prior assays.
GPR17 is a G-protein coupled receptor. GPR17 activation triggers Gq-type G-protein signaling resulting in endoplasmic reticulum calcium (Ca^2+) stores release in cytosol which can be measured using Calcium 5 dye, a fluorescent indicator dye of cytosolic Ca^2+ levels. The compounds of the present invention were assessed either in the Ca^2+ assay or in the GPR17 cAMP assay, described further below.
CHO hGPR17 were defrosted and seeded at a density of 20,000 cells per well into black 384-well plates with clear bottom. Cells were incubated overnight at 37° C. in a humidified atmosphere of 5% CO2. Sixteen to twenty hours after seeding, CHO hGPR17 were loaded for 60 min with Calcium 5 dye, a cytosolic Ca^2+ indicator fluorescent dye, according to manufacturer's instructions. Fluorescent signal relative to cytosolic Ca^2+ concentration was recorded over time at room temperature in FLIPR Tetra reader. Cells were first incubated for 30 minutes at room temperature in HBSS Hepes buffer pH 7.4 containing increasing concentrations of test compounds (typically 10^−11 M to 10^−6M). Then, 50 nM MDL29,951, a GPR17 agonist, was added to the cells. Inhibitory effects of varying concentrations test compounds were measured and resulting pIC50S were determined. All incubations were performed in duplicate and results were compared to a concentration response curve of GPR17 agonist and antagonist reference compounds. Analysis and curve fitting were performed in ActivityBase XE using XLfit 4-parameter logistic equation y=A+((B−A)/(1+((C/x)^D))) where A, B, C and D stand for minimum y, maximum y, IC50 and slope, respectively.
The activities of the Example compounds tested are depicted in the table 6 in Section B-IIB below. The activity ranges A, B and C refer to pIC50 values in the Ca^2+ assay as follows: “A”: pIC50 6.5≤x<7.5, “B”: pIC50 7.5≤x<8.5, “C”: 8.5≤pIC50
Target sequence in this assay (Q13304 29-367 limits assumed): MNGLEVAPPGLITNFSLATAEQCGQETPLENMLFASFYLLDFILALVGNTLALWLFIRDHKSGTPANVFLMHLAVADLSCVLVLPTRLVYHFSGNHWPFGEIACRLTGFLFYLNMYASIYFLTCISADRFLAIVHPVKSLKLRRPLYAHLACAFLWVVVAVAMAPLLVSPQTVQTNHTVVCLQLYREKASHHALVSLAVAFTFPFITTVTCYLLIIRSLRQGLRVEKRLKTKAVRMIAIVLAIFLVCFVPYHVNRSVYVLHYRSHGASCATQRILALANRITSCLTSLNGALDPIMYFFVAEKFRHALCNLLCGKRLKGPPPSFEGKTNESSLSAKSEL

GPR17 [3] = target: T1, GPR17; assay: cAMP accumulation functional assay (HTRF) in CHO hGPR17 cells; type: cell-based; parameters: host or cells: Flp-In T-REx CHO cells, expression induced with doxycycline; details: Schild analysis against MDL29,951, 5 μM forskolin, activity range, read-out: cAMP assay pA2 (converted)
Description: as §1
Target sequence in this assay (Q13304 29-367 limits assumed): as above
GPR17 activation can also recruit Gi-type G-protein signaling, resulting in a decrease of intracellular cyclic adenosine monophosphate (cAMP). Intracellular cAMP changes can be measured using the HTRF cAMP dynamic assay kit from CisBio (Codolet, France). Using homogenous time-resolved fluorescence technology (HTRF), the assay is based on competition between native cAMP produced by cells and cAMP labelled with the dye d2. The tracer binding was determined by an anti-cAMP antibody labeled with cryptate.
CHO hGPR17 were detached with PBS containing EDTA and dispatched in black 384-well plates with 5,000 cells per well. Cells were first incubated for 30 minutes at room temperature in HBSS Hepes (pH 7.4) containing vehicle or varying concentrations of test GPR17 antagonist/inverse agonist compounds. Then, a dose response curve of MDL29,951 GPR17 agonist (typically from 10^−5M to 10^−10M) was added on vehicle and on each test GPR17 antagonist/inverse agonist compound concentration in a final volume of 20 μL HBSS Hepes buffer (pH 7.4) containing 1% DMSO, 5 μM forskolin and 0.1 mM IBMX. After 60 minutes incubation at room temperature, the reaction is terminated and the cells lysed by adding the d2 detection reagent and the cryptate reagent in 10 μL lysis buffer each according to manufacturer's instructions. After 60 minutes incubation, changes in cAMP concentrations are measured according to manufacturer's instructions using an Envision plate reader with laser excitation. All incubations were performed in duplicate. Data was analyzed using GraphPad Prism software using the 4-parameter logistic equation to measure MDL29,951 pEC50s in absence and presence of GPR17 antagonist/inverse agonist test compounds. Dose ratio (DR) were plotted against antagonist concentrations and Schild analysis provided estimated affinity pA2 of GPR17 antagonist/inverse agonist test compounds.
The activities of the Example compounds tested are depicted in the table below. The activity ranges A, B and C refer to pA2 values in the cAMP assay as follows: “A”: pA2 6.5≤x<7.5, “B”: pA2 7.5≤x<8.5, “C”: 8.5≤pA2.

Row | IC50 (GPR17 [2]) | Kb (GPR17 [3]) | Structure (SMILES) | amounts needed in the assays (GPR17 activating ligand) (GPR17 [1])
1 |  |  | NCC(=O)CCC(=O)O [Example 5-ALA, 5 amino levulinic acid] | three digit micromolar range
2 | ≤ 3.16 nM | ≤ 3.16 nM | COc1nc(OC)c(NS(=O)(=O)c2c[nH]c3cc(Cl)ccc23)cc1F [Example I-6, 6-chloro-N-(5-fluoro-2,6-dimethoxypyridin-3-yl)-1H-indole-3-sulfonamide] | 
3 | 3.16 to 31.6 nM | 3.16 to 31.6 nM | Cc1nc(F)c(NS(=O)(=O)c2c[nH]c3cc(Cl)ccc23)cc1F [Example I-7, 6-chloro-N-(2,5-difluoro-6-methylpyridin-3-yl)-1H-indole-3-sulfonamide] | 
4 | ≤ 3.16 nM | ≤ 3.16 nM | COc1nc(Br)cnc1NS(=O)(=O)c1c[nH]c2cc(Cl)ccc12 [Example I-10, N-(5-bromo-3-methoxypyrazin-2-yl)-6-chloro-1H-indole-3-sulfonamide] | 
5 | 31.6 to 316 nM | 31.6 to 316 nM | COc1ccc(NS(=O)(=O)c2c[nH]c3cc(Cl)ccc23)cn1 [Example I-15, 6-chloro-N-(6-methoxypyridin-3-yl)-1H-indole-3-sulfonamide] | 
6 | 31.6 to 316 nM | 31.6 to 316 nM | O=S(=O)(Nc1cnc(Br)cn1)c1c[nH]c2cc(Cl)ccc12 [Example I-18, N-(5-bromopyrazin-2-yl)-6-chloro-1H-indole-3-sulfonamide] | 
7 | 31.6 to 316 nM | 3.16 to 31.6 nM | O=S(=O)(Nc1ccc(I)nc1)c1c[nH]c2cc(Cl)ccc12 [Example I-21, 6-chloro-N-(6-iodopyridin-3-yl)-1H-indole-3-sulfonamide] | 
8 | 3.16 to 31.6 nM | ≤ 3.16 nM | O=S(=O)(Nc1cnc(Cl)cc1F)c1c[nH]c2cc(Cl)ccc12 [Example I-25, 6-chloro-N-(6-chloro-4-fluoropyridin-3-yl)-1H-indole-3-sulfonamide] | 
9 | ≤ 3.16 nM | ≤ 3.16 nM | COc1nc(Cl)c(F)cc1NS(=O)(=O)c1c[nH]c2nc(Cl)ccc12 [Example I-32, 6-chloro-N-(6-chloro-5-fluoro-2-methoxypyridin-3-yl)-1H-pyrrolo[2,3-b]pyridine-3-sulfonamide] | 
10 | 31.6 to 316 nM | 31.6 to 316 nM | COc1nc(F)c(NS(=O)(=O)c2c[nH]c3nc(Cl)ccc23)cc1F [Example I-33, 6-chloro-N-(2,5-difluoro-6-methoxypyridin-3-yl)-1H-pyrrolo[2,3-b]pyridine-3-sulfonamide] | 
11 | 3.16 to 31.6 nM | 3.16 to 31.6 nM | COc1nc(OC)c(NS(=O)(=O)c2c[nH]c3nc(Cl)ccc23)cc1F [Example I-34, 6-chloro-N-(5-fluoro-2,6-dimethoxypyridin-3-yl)-1H-pyrrolo[2,3-b]pyridine-3-sulfonamide] | 
12 |  |  | NCc1[nH]cc(CCC(=O)O)c1CC(=O)O [PBG, porphobilinogen] | mM range
